Data reported in patent publication US11051515B2, “3-acyl-benzamides and their use as herbicides” (Bayer Aktiengesellschaft, priority 2017, dated 2021).

Tests used:
[1] = test system: ALOMY; assay: Pre-emergence action against ALOMY; type: in vivo, Alopecurus myosuroides; settings: Alopecurus myosuroides, 504 h; dosage 320 g/ha; pre-emergence; scored visually after 3 weeks vs untreated controls; 100% = plants have died, 0% = like control plants; read-out: Pre-emergence action against ALOMY (herbicidal activity in percent)
Summary of the method: (§1)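 Seeds sown in sandy loam in wood-fiber pots and covered with soil. Greenhouse growth; visual damage scored after 3 weeks versus untreated controls (100% = dead, 0% = like control).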

[2] = test system: AVEFA; assay: Pre-emergence action against AVEFA; type: in vivo, Avena fatua; settings: Avena fatua, 504 h, dosage 320 g/ha, scored visually after 3 weeks vs untreated controls, read-out: Pre-emergence action against AVEFA (herbicidal activity)
Summary of the method: as §1

[3] = test system: CYPES; assay: Pre-emergence action against CYPES; type: in vivo, Cyperus esculentus; settings: Cyperus esculentus, 504 h; pre-emergence, dosage 320 g/ha, scored visually after 3 weeks vs untreated controls; read-out: Pre-emergence action against CYPES (herbicidal activity)
Summary of the method: as §1

[4] = test system: ECHCG; assay: Pre-emergence action against ECHCG; type: in vivo, Echinochloa crus-galli; settings: Echinochloa crus-galli, 504 h; pre-emergence, dosage 320 g/ha, scored visually after 3 weeks vs untreated controls; read-out: Pre-emergence action against ECHCG (herbicidal activity)
Summary of the method: as §1

[5] = test system: LOLMU; assay: Pre-emergence action against LOLMU; type: in vivo, Lolium multiflorum; settings: Lolium multiflorum, 504 h, dosage 320 g/ha, scored visually after 3 weeks vs untreated controls, read-out: Pre-emergence action against LOLMU (herbicidal activity)
Summary of the method: as §1

[6] = test system: SETVI; assay: Pre-emergence action against SETVI; type: in vivo, Setaria viridis; settings: Setaria viridis, 504 h; pre-emergence, dosage 320 g/ha, scored visually after 3 weeks vs untreated controls; read-out: SETVI (Table B8, pre-emergence herbicidal activity)
Summary of the method: as §1

[7] = test system: ABUTH; assay: Pre-emergence action against ABUTH; type: in vivo, Abutilon theophrasti; settings: Abutilon theophrasti, 504 h; pre-emergence, dosage 320 g/ha, scored visually after 3 weeks vs untreated controls; read-out: Pre-emergence action against ABUTH (herbicidal activity)
Summary of the method: as §1

[8] = test system: AMARE; assay: Pre-emergence action against AMARE; type: in vivo, Amaranthus retroflexus; settings: Amaranthus retroflexus, 504 h; pre-emergence, dosage 320 g/ha, scored visually after 3 weeks vs untreated controls; read-out: Pre-emergence action against AMARE (herbicidal activity)
Summary of the method: as §1

[9] = test system: MATIN; assay: Pre-emergence action against MATIN; type: in vivo, Matricaria inodora; settings: Tripleurospermum inodorum, 504 h; Dosage 320 g/ha, pre-emergence
Summary of the method: as §1

[10] = test system: POLCO; assay: Pre-emergence action against POLCO; type: in vivo, Polygonum convolvulus; settings: Fallopia convolvulus, 504 h; Dosage 320 g/ha, pre-emergence
Summary of the method: as §1

[11] = test system: STEME; assay: Pre-emergence action against STEME; type: in vivo, Stellaria media; settings: Stellaria media, 504 h; Dosage 320 g/ha, pre-emergence
Summary of the method: as §1

[12] = test system: VIOTR; assay: Pre-emergence action against VIOTR; type: in vivo, Viola tricolor; settings: Viola tricolor, 504 h; Dosage 320 g/ha, pre-emergence
Summary of the method: as §1

[13] = test system: VERPE; assay: Pre-emergence action against VERPE; type: in vivo, Veronica persica; settings: Veronica persica, 504 h; Dosage 320 g/ha, pre-emergence
Summary of the method: as §1

[14] = test system: ALOMY; assay: Post-emergence action against ALOMY; type: in vivo, Alopecurus myosuroides; settings: Alopecurus myosuroides, 504 h; Dosage 80 g/ha, post-emergence
Summary of the method: (§2)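 Weeds grown in sandy loam in greenhouse, treated at one-leaf stage (2–3 weeks after sowing) with WP or EC formulations sprayed as aqueous suspension/emulsion at 600 to […] water with 0.2% wetting agent. Visual rating after about 3 weeks versus untreated controls, as % herbicidal action (100% = plants dead, 0% = like control).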

[15] = test system: AVEFA; assay: Post-emergence action against AVEFA; type: in vivo, Avena fatua; settings: Avena fatua, 504 h; post-emergence, dosage 80 g/ha, visual assessment about 3 weeks after treatment vs untreated controls; read-out: Post-emergence action against AVEFA (herbicidal action in percent)
Summary of the method: as §2

[16] = test system: ECHCG; assay: Post-emergence action against ECHCG; type: in vivo, Echinochloa crus-galli; settings: Echinochloa crus-galli, 504 h; post-emergence, dosage 80 g/ha, visual assessment about 3 weeks after treatment vs untreated controls; read-out: Post-emergence action against ECHCG (herbicidal action in percent)
Summary of the method: as §2

[17] = test system: LOLMU; assay: Post-emergence action against LOLMU; type: in vivo, Lolium multiflorum; settings: Lolium multiflorum, 504 h, dosage 80 g/ha, visual assessment about 3 weeks after treatment vs untreated controls, read-out: Post-emergence action against LOLMU (herbicidal action in percent)
Procedure: Seeds of monocotyledonous and dicotyledonous weed and crop plants are laid out in sandy loam soil in wood-fiber pots, covered with soil and cultivated in a greenhouse under good growth conditions. 2 to 3 weeks after sowing, the test plants are treated at the one-leaf stage. The compounds of the invention, formulated in the form of wettable powders (WP) or as emulsion concentrates (EC), are then sprayed onto the green parts of the plants in the form of an aqueous suspension or emulsion at a water application rate equating to […], with addition of 0.2% wetting agent. After the test plants have been left to stand in the greenhouse under optimal growth conditions for about 3 weeks, the action of the preparations is assessed visually in comparison to untreated controls (herbicidal action in percent (%): 100% activity=the plants have died, 0% activity=like control plants). […] At the same time, inventive compounds leave Gramineae crops such as barley, wheat, rye, millet/Sorghum, corn or rice virtually undamaged when applied post-emergence, even at high active ingredient dosages. In addition, some substances are also harmless to dicotyledonous crops such as soya, cotton, oilseed rape, sugar beet or potatoes. Some of the compounds according to the invention have high selectivity and are therefore suitable for controlling unwanted vegetation in agricultural crops by the post-emergence method. The data of Tables B18 to B34 below illustrate, in an exemplary manner, the […] herbicidal action of the compounds according to the invention, the herbicidal activity being stated in percent.

[18] = test system: SETVI; assay: Post-emergence action against SETVI; type: in vivo, Setaria viridis; settings: Setaria viridis, 504 h; post-emergence, dosage 80 g/ha, visual assessment about 3 weeks after treatment vs untreated controls; read-out: Post-emergence action against SETVI (herbicidal action in percent)
Summary of the method: as §2

[19] = test system: ABUTH; assay: Post-emergence action against ABUTH; type: in vivo, Abutilon theophrasti; settings: Abutilon theophrasti, 504 h; post-emergence, dosage 80 g/ha, visual assessment about 3 weeks after treatment vs untreated controls; read-out: Post-emergence action against ABUTH (herbicidal action in percent)
Summary of the method: as §2

[20] = test system: AMARE; assay: Post-emergence action against AMARE; type: in vivo, Amaranthus retroflexus; settings: Amaranthus retroflexus, 504 h; post-emergence, dosage 80 g/ha, visual assessment about 3 weeks after treatment vs untreated controls; read-out: Post-emergence action against AMARE (herbicidal action in percent)
Summary of the method: as §2

[21] = test system: MATIN; assay: Post-emergence action against MATIN; type: in vivo, Matricaria inodora; settings: Tripleurospermum inodorum, 504 h; post-emergence, dosage 80 g/ha, visual assessment about 3 weeks after treatment vs untreated controls; read-out: Post-emergence action against MATIN (herbicidal action in percent)
Summary of the method: as §2

[22] = test system: PHBPU; assay: Post-emergence action against PHBPU; type: in vivo, Pharbitis purpurea; settings: Ipomoea purpurea, 504 h; post-emergence, dosage 80 g/ha
Summary of the method: as §2

[23] = test system: POLCO; assay: Post-emergence action against POLCO; type: in vivo, Polygonum convolvulus; settings: Fallopia convolvulus, 504 h; post-emergence, dosage 80 g/ha
Summary of the method: as §2

[24] = test system: STEME; assay: Post-emergence action against STEME; type: in vivo, Stellaria media; settings: Stellaria media, 504 h; post-emergence, dosage 80 g/ha
Summary of the method: as §2

[25] = test system: VIOTR; assay: Post-emergence action against VIOTR; type: in vivo, Viola tricolor; settings: Viola tricolor, 504 h; post-emergence, dosage 80 g/ha
Summary of the method: as §2

[26] = test system: VERPE; assay: Post-emergence action against VERPE; type: in vivo, Veronica persica; settings: Veronica persica, 504 h, dosage 80 g/ha
Summary of the method: as §2

Compound	pest or weed control at 320 g/ha [1] [%]	pest or weed control at 320 g/ha [2] [%]	pest or weed control at 320 g/ha [4] [%]	pest or weed control at 320 g/ha [5] [%]	pest or weed control at 320 g/ha [6] [%]	pest or weed control at 320 g/ha [7] [%]	pest or weed control at 320 g/ha [8] [%]	pest or weed control at 320 g/ha [9] [%]	pest or weed control at 320 g/ha [10] [%]	pest or weed control at 320 g/ha [11] [%]	pest or weed control at 320 g/ha [12] [%]	pest or weed control at 320 g/ha [13] [%]	pest or weed control at 80 g/ha [14] [%]	pest or weed control at 80 g/ha [15] [%]	pest or weed control at 80 g/ha [16] [%]	pest or weed control at 80 g/ha [17] [%]	pest or weed control at 80 g/ha [18] [%]	pest or weed control at 80 g/ha [19] [%]	pest or weed control at 80 g/ha [20] [%]	pest or weed control at 80 g/ha [21] [%]	further results
CSc1ccc(C(=O)Nc2nnnn2C)c(Cl)c1C(C)=O [1-121]	90	90	100	90	100	90	100	100	90	90	100	100	90	90	90	90	90	90	90	100	pest or weed control at 320 g/ha [3]: 90%; pest or weed control at 80 g/ha [22]: 90%; pest or weed control at 80 g/ha [23]: 80%; pest or weed control at 80 g/ha [24]: 100%; pest or weed control at 80 g/ha [25]: 90%; pest or weed control at 80 g/ha [26]: 100%
Cn1nnnc1NC(=O)c1ccc(Cl)c(C(=O)C2CC2)c1Cl [1-116]	100	100	100	100	100	90	100	100	90	90	100	100	90	100	90	100	100	90	90	90	pest or weed control at 80 g/ha [22]: 90%; pest or weed control at 80 g/ha [24]: 100%; pest or weed control at 80 g/ha [25]: 90%
